Data: US11279703B2, “Fused pyrimidine compounds as BRD4 and JAK2 dual inhibitors and methods for use thereof” (APTOSE BIOSCIENCES INC., priority 2016, dated 2022)
pIC50: −log10 of the molar value. Read-outs that look alike come from different tables or passages of the source.

Columns and labels:
BRD4-BD1 = BRD4-BD1 (Homo sapiens (Human), UniProt O60885); test: AlphaLisa bromodomain binding assay, BRD4-BD1
JAK2 = JAK2 (Homo sapiens (Human), UniProt O60674); test: HTRF kinase assay, JAK2; type: biochemical
Chain of JAK2 (O60674 whole entry): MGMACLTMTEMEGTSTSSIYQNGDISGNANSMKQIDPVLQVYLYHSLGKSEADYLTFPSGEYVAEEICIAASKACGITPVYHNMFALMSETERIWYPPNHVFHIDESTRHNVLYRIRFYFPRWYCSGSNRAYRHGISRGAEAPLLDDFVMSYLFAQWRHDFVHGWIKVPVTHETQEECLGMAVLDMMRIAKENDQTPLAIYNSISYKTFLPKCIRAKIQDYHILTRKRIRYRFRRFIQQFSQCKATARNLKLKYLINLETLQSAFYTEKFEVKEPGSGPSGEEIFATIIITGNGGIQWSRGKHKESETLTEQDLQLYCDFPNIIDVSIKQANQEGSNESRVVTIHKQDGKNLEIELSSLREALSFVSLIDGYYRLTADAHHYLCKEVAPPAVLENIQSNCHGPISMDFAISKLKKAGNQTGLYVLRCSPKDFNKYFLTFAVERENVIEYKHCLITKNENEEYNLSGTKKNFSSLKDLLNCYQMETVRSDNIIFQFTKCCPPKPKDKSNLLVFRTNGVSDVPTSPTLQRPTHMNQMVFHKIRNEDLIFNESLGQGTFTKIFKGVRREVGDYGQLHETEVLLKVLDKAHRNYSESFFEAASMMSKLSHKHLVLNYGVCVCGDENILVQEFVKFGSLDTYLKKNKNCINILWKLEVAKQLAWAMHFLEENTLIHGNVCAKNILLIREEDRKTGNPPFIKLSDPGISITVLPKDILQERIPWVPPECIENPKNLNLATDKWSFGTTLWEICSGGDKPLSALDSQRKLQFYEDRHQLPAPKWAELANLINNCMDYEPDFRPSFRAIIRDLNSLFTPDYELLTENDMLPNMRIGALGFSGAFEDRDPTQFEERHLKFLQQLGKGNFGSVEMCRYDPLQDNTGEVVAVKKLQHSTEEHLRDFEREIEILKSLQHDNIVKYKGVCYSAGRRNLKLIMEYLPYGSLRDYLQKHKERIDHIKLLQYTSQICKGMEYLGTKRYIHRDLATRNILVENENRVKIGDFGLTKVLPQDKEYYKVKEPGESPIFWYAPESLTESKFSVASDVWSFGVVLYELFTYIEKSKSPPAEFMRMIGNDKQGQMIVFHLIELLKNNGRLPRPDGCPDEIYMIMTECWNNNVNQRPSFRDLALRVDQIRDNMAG
Excerpt: A kinase assay with HTRF was used to observe JAK activity and calculate the IC50s of compounds disclosed herein. HTRF is an enzymatic assay used to determine the amount of phosphorylated peptide. FRET (Fluorescence Resonance Energy Transfer) is based on the transfer of energy between two fluorophores—a donor and an acceptor—when in close proximity. Molecular interactions between biomolecules can be assessed by coupling each partner with a fluorescent label and by detecting the level of energy transfer. The amount of phopshorylated peptide can be detected using a combination of a Eu 3+Cryptate labeled anti-phospho residue antibody, SA-XL665 and a biotinylated substrate. The signal is proportional to the concentration of phospho-residues.
Equipment Required • 1. […] Plate centrifuge • 3. Plate shaker • 4. […] Single channel and multi-channel pipettes • 6. Microplate reader (Pherastar)]
Stock and Final Assay Concentrations (FAC) • 1. All reference and test compounds are made at a concentration of 10 mM in DMSO. Compounds are serially diluted in DMSO and a FAC starting from 10 μM to 10 point 3 fold serial dilutions is arrived. For Ruxolitinib the starting FAC is 1 μM. FAC of DMSO is 1%. • 2. Enzyme stock and FAC
• JAK-1: Invtirogen Cat: PR8767C • JAK-2: Invtirogen Cat: PR7820B • JAK-3: Invtirogen Cat: PR7507B • 3. Substrate (synthetic peptide-Biotinylated-N-terminal tag-[…] from Biopeptide) stock and FAC
• Adenosine 5′-triphosphate disodium salt hydrate: Sigma Cat: A26209 • 5. […] Buffers • Base buffer (for 50 ml)
• HTRF buffer: • 50 mM Tris-HCl, pH—7.5 • 100 mM NaCl • 0.1% BSA • 0.05% Tween20 • 0.5 mM EDTA
To a 384 well black-plate: • 1. Add 17 μL of the buffer to each well of the 384-well black plate • 2. […] Add 5 μl of the enzyme to each well of the plate • 4. Add 10 μl of the substrate and ATP mix to all the wells • 5. Cover with plate sealer • 6. […] Incubate at room temperature for 1 hour on shaker • 8. […] Add 37.5 μL of the HTRF mix to these wells. • 9. Incubate the plate at room temperature on shaker for 45 minutes. • 10.
The percent inhibition is calculated in the excel analysis template and the IC50 values are subsequently determined using a sigmoidal dose-response curve (variable slope) using GraphPad Prism® 5 software.

[1] = Table 6, read-out: BRD4(1) IC50

Compound	pIC50 (BRD4-BD1; [1])	pIC50 (JAK2; Table 6)	pIC50 (BRD4-BD1; Table 5, read-out: BRD4 IC50)	pIC50 (JAK2; Table 5)
CN1CCN(c2cccc(Nc3ncc4ccn(-c5cccc(NS(=O)(=O)C(C)(C)C)c5)c4n3)c2)CC1	5.77	7.13	–	–
CN1CCN(c2ccc(Nc3nc(Nc4cccc(NS(=O)(=O)C(C)(C)C)c4)c4cc[nH]c4n3)cc2)CC1	5.77	7.49	–	–
CNCCOc1ccc(Nc2ncc3ccn(-c4cccc(NS(=O)(=O)C(C)(C)C)c4)c3n2)cc1F [drawing 460]	5.64	7.30	–	–
CC(C)(C)S(=O)(=O)N1CCc2ccc(-n3ccc4cnc(Nc5ccc(N6CCNCC6)cc5)nc43)cc21	5.71	7.40	–	–
CNC1CCN(c2ccc(Nc3ncc4scc(-c5ccc(F)c(NS(=O)(=O)C(C)(C)C)c5)c4n3)cc2F)CC1 [drawing 459]	6.51	7.68	–	–
CN1CCN(c2ccc(Nc3ncc4ccn(-c5cccc(NS(=O)(=O)C6CC6)c5)c4n3)cc2)CC1 [drawing 74]	–	–	6.45	8.60
CN1CCN(c2ccc(Nc3cc(Nc4cccc(NS(=O)(=O)C(C)(C)C)c4)c4sccc4n3)cc2)CC1	5.54	5.33	–	–
CC(C)(C)S(=O)(=O)Nc1cccc(Nc2nc(NC3CC4CC3CN4)nc3sccc23)c1 (stereo not drawn)	6.59	5.38	–	–
CN(C)C1CCN(c2ccc(Nc3ncc4ccn(-c5cccc(NS(=O)(=O)C6(C)CC6)c5)c4n3)cc2)CC1	6.20	8.22	–	–
CC(C)(C)S(=O)(=O)Nc1cc(-c2csc3cnc(Nc4ccc(N5CCNCC5)c(F)c4)nc23)ccc1F	6.79	7.29	–	–
CN(C)C1CCN(c2ccc(Nc3ncc4ccn(-c5cccc(NS(=O)(=O)C(C)(C)C)c5)c4n3)cc2F)CC1 [drawing 371]	6.88	8.52	–	–
CN1CCN(c2ccc(Nc3ncc4ccn(-c5ccc(Cl)c(NS(=O)(=O)C(C)(C)C)c5)c4n3)cc2)CC1	6.32	6.78	–	–
CN1CCC(Nc2nc(Nc3cccc(NS(=O)(=O)C(C)(C)C)c3)c3cc[nH]c3n2)CC1	5.15	5.00	–	–
O=C(NC1CCNCC1)c1ccc(Nc2ncc3ccn(-c4cccc(NS(=O)(=O)C5CC5)c4)c3n2)cc1F	5.80	7.16	–	–
CC(C)(C)S(=O)(=O)Nc1cccc(-n2ccc3cnc(Nc4ccc(N5CCNCC5)c(F)c4)nc32)c1 [drawing 431]	6.61	8.02	–	–
CN1CCN(c2ccc(Nc3ncc4ccn(-c5cccc6c5CCN6S(=O)(=O)C(C)(C)C)c4n3)cc2)CC1	5.00	8.10	–	–
CN1CCN(c2ccc(Nc3ncc4ccn(-c5cccc(NS(=O)(=O)C6(C)CC6)c5)c4n3)cc2)CC1	6.03	7.92	–	–
Cc1cnc(Nc2ccc(N3CCN(C)CC3)cc2)nc1Nc1cccc(NS(=O)(=O)C(C)(C)C)c1 [drawing 396]	6.81	8.15	–	–
Cc1ccc(-n2ccc3cnc(Nc4ccc(N5CCNCC5)cc4)nc32)cc1NS(=O)(=O)C1CC1	5.66	7.51	–	–
CN1CCN(c2ccc(Nc3ncc4ccn(-c5cccc(NS(=O)(=O)C(C)(C)C)c5)c4n3)cc2Cl)CC1	5.95	8.10	–	–
CC(C)(C)S(=O)(=O)Nc1cccc(-n2ccc3cnc(Nc4ccc(N5CCNCC5)cc4)nc32)c1 [drawing 306]	6.40	8.00	–	–
COc1nc(NC2CCNCC2)nc2c1ccn2-c1cccc(NS(=O)(=O)C(C)(C)C)c1	6.91	5.52	–	–
CC(C)(C)S(=O)(=O)Nc1cccc(-n2ccc3cnc(Nc4ccc(N5CCN(S(C)(=O)=O)CC5)cc4)nc32)c1	5.34	7.40	–	–
COc1cc(Nc2ncc3scc(-c4cccc(NS(=O)(=O)C(C)(C)C)c4)c3n2)ccc1N1CCC(N(C)C)CC1	6.25	9.00	–	–
CC(C)(C)S(=O)(=O)Nc1cccc(Nc2nc(NC3CCN(C(N)=O)CC3)nc3sccc23)c1	5.52	5.00	–	–
CC1CNCC(C)C1Nc1nc(Nc2cccc(NS(=O)(=O)C(C)(C)C)c2)c2ccsc2n1 (stereo not drawn)	5.00	5.00	–	–
CC(C)(C)S(=O)(=O)Nc1cc(-n2ccc3cnc(Nc4ccc(N5CCNCC5)c(F)c4)nc32)ccc1F [drawing 430]	6.90	7.12	–	–

Compound	pIC50 (BRD4-BD1; [1])	pIC50 (JAK2; Table 6)	pIC50 (BRD4-BD1; Table 5, read-out: BRD4 IC50)	pIC50 (JAK2; Table 5)
CN1C(=O)CCc2cc(Nc3ncc4ccn(-c5cccc(NS(=O)(=O)C(C)(C)C)c5)c4n3)ccc21	5.49	7.46	–	–
CN(C)C1CCN(c2ccc(Nc3ncc4ccn(-c5cccc(NS(=O)(=O)C(C)(C)C)c5)c4n3)cc2)C1 (stereo not drawn)	6.07	7.43	–	–
CC1CNCCC1Nc1nc(Nc2cccc(NS(=O)(=O)C(C)(C)C)c2)c2ccsc2n1 (stereo not drawn)	5.70	5.00	–	–
CC(C)(C)S(=O)(=O)Nc1cccc(-n2ccc3cnc(Nc4ccc(N5CCOCC5)cc4)nc32)c1	5.26	7.61	–	–
CN1CCN(C(=O)Cc2ccc(Nc3ncc4ccn(-c5ccc(F)c(NS(=O)(=O)C(C)(C)C)c5)c4n3)cc2)CC1	6.19	6.62	–	–
CC(=O)N1CCN(c2ccc(Nc3ncc4ccn(-c5cccc(NS(=O)(=O)C6CC6)c5)c4n3)cc2)CC1	5.24	4.60	–	–
CNc1cc(Nc2ncc3ccn(-c4cccc(NS(=O)(=O)C(C)(C)C)c4)c3n2)ccc1N1CCN(C)CC1	6.25	7.66	–	–
CN1CCN(c2ccc(Nc3ncc4ccn(-c5ccc(NS(=O)(=O)C(C)(C)C)cc5)c4n3)cc2)CC1 [drawing 362]	5.00	9.15	–	–
CN1CCCc2cc(Nc3ncc4ccn(-c5cccc(NS(=O)(=O)C(C)(C)C)c5)c4n3)ccc21	6.10	7.15	–	–
Cc1cnc(Nc2ccc(N3CCN(C)CC3)cc2)nc1Nc1cccc(NS(=O)(=O)C(C)(C)C)c1 [drawing 405]	6.68	7.85	–	–
CN1CCN(c2ccc(Nc3ncc4ccn(-c5ccc6c(c5)N(S(=O)(=O)C(C)(C)C)CC6)c4n3)cc2F)CC1	5.89	7.42	–	–
Cc1cnc(Nc2ccc(N3CCN(C)CC3)cc2)nc1Nc1cccc(NS(=O)(=O)C(C)(C)C)c1 [drawing 258]	6.59	8.00	–	–
CCC1(S(=O)(=O)Nc2cccc(-n3ccc4cnc(Nc5ccc(N6CCC(N(C)C)CC6)cc5)nc43)c2)CC1	5.85	8.33	–	–
Cc1cnc(Nc2ccc(N3CCN(C)CC3)cc2)nc1Nc1cccc(NS(=O)(=O)C(C)(C)C)c1 [drawing 114]	6.68	7.92	–	–
CC(C)(C)S(=O)(=O)Nc1cccc(-n2ccc3cnc(NC4CCNCC4)nc32)c1	5.00	5.00	–	–
CC(C)(C)S(=O)(=O)Nc1cccc(-c2csc3cnc(Nc4ccc5c(c4)CC4CNCCN54)nc23)c1 (stereo not drawn)	6.50	8.30	–	–
CC(C)(C)S(=O)(=O)Nc1cccc(Nc2nc(NC3CCNC(=O)C3)nc3sccc23)c1 (stereo not drawn)	5.92	5.00	–	–
CC(C)(C)S(=O)(=O)Nc1cccc(-n2ccc3cnc(Nc4ccc(CC(=O)NCCN)cc4)nc32)c1	6.39	7.19	–	–
CN1CCN2c3ccc(Nc4ncc5scc(-c6cccc(NS(=O)(=O)C(C)(C)C)c6)c5n4)cc3CC2C1 (stereo not drawn)	6.22	8.70	–	–
COc1cc(Nc2ncc3ccn(-c4ccc(F)c(NS(=O)(=O)C(C)(C)C)c4)c3n2)ccc1N1CCN(C)CC1	6.57	7.05	–	–
CN(C)C1CCN(Cc2ccc(Nc3ncc4ccn(-c5cccc(NS(=O)(=O)C(C)(C)C)c5)c4n3)cc2F)CC1	6.84	7.29	–	–
CN(C)C1CCN(c2ccc(Nc3ncc4ccn(-c5cccc(NS(=O)(=O)C(C)(C)C)c5)c4n3)cc2F)CC1 [drawing 76]	–	–	6.88	8.52
Cc1cnc(Nc2ccc(N3CCN(C)CC3)cc2)nc1Nc1cccc(NS(=O)(=O)C(C)(C)C)c1 [drawing 276]	6.79	8.10	–	–
CNC(=O)N1CCN(c2ccc(Nc3ncc4ccn(-c5cccc(NS(=O)(=O)C(C)(C)C)c5)c4n3)cc2)CC1	5.49	7.72	–	–
Cc1cnc(Nc2ccc(N3CCN(C)CC3)cc2)nc1Nc1cccc(NS(=O)(=O)C(C)(C)C)c1 [drawing 231]	6.88	8.10	–	–
CN1CCN(c2ccc(Nc3ncc4ccn(-c5ccc(CNS(=O)(=O)C(C)(C)C)cc5)c4n3)cc2)CC1 [drawing 378]	5.00	9.74	–	–
Cc1cnc(Nc2ccc(N3CCN(C)CC3)cc2)nc1Nc1cccc(NS(=O)(=O)C(C)(C)C)c1 [drawing 339]	6.63	7.37	–	–
